Publication PMC4661079 (Bioorganic & medicinal chemistry, 2015)

Legend:
[1] = target: T1, TAK1 (Homo sapiens, UniProt O43318); assay: in vitro TAK1 inhibition assay; assay type: biochemical; conditions: for TAK1 inhibitory activity, result in words: in vitro TAK1 inhibition
T1 sequence (O43318 1-303 limits assumed): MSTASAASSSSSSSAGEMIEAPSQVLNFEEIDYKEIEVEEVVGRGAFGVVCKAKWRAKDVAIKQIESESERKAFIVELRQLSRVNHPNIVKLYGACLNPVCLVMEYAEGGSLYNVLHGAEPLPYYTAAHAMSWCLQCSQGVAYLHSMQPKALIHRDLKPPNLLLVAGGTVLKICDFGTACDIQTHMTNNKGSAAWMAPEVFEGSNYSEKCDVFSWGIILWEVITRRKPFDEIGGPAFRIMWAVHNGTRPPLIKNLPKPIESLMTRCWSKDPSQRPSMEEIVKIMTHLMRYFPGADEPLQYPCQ
T1 sequence (Q15750 437-504 partner limits assumed): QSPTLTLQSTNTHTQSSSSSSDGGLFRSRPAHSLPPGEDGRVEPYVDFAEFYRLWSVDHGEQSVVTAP

[2] = tested on: 85 kinases; conditions: 1 μM concentration; ref 14 (Wu et al.); cited from earlier work

COc1cc(O)c2c(c1)/C=C/C[C@H](O)[C@H](O)[C@@H](O)/C=C/C[C@H](C)OC2=O [Compound 3, zeaenol]
TAK1 inhibitory activity, result in words [1]: loss of activity

COc1cc2c(c(O)c1Br)C(=O)O[C@@H](C)C/C=C\C(=O)[C@@H](O)[C@@H](O)C/C=C/2 [Compound 12, (3S,5Z,8S,9S,11E)-15-Bromo-8,9,16-trihydroxy-14-methoxy-3-methyl-3,4,9,10-tetrahydro-1H-benzo[c][1]oxacyclotetradecine-1,7(8H)-dione]
TAK1 inhibitory activity, result in words [1]: significantly less active

COc1cc(O)cc2c1C(=O)O[C@@H](C)CCCCC/C=C/C(=O)C2 [Compound 8, greensborone C]
TAK1 inhibitory activity, result in words [1]: diminished activity

COc1cc(O)c2c(c1)/C=C/C[C@H](O)[C@H](O)C(=O)/C=C\C[C@H](C)OC2=O [Compound 1, (5Z)-7-oxozeaenol]
number of kinases with at least 50% inhibition out of 85 kinases tested [2]: 12

COc1cc(O)c2c(c1)[C@H]1O[C@@H]1C[C@H](O)[C@H](O)C(=O)CCC[C@H](C)OC2=O [Compound 5, dihydrohypothemycin]
TAK1 inhibitory activity, result in words [1]: loss of activity

COc1cc(O)c2c(c1Br)/C=C/C[C@H](O)[C@H](O)C(=O)/C=C\C[C@H](C)OC2=O [Compound 13, (3S,5Z,8S,9S,11E)-13-Bromo-8,9,16-trihydroxy-14-methoxy-3-methyl-3,4,9,10-tetrahydro-1H-benzo[c][1]oxacyclotetradecine-1,7(8H)-dione]
times less active than difluoro derivative 11 ([1]; TAK1 inhibition, compared with 11): 5 times

COC1=CC(=O)C2=C(/C=C/C[C@H](O)[C@H](O)C(=O)/C=C\C[C@H](C)OC2=O)C1(F)F [Compound 11, (3S,5Z,8S,9S,11E)-13,13-Difluoro-8,9-dihydroxy-14-methoxy-3-methyl-3,4,9,10-tetrahydro-1H benzo[c][1]oxacyclotetradecine-1,7,16(8H,13H)-trione]
IC50 [1]: 77 nM | TAK1 inhibitory activity, result in words [1]: statistically equipotent to 1

COc1c(Br)c(O)c2c(c1Br)/C=C/C[C@H](O)[C@H](O)C(=O)/C=C\C[C@H](C)OC2=O [Compound 14, (3S,5Z,8S,9S,11E)-13,15-Dibromo-8,9,16-trihydroxy-14methoxy-3-methyl-3,4,9,10-tetrahydro-1H-benzo[c][1]oxacyclotetradecine-1,7(8H)-dione]
TAK1 inhibitory activity, result in words [1]: least active

COc1cc(O)c2c(c1)/C=C/C[C@H](O)[C@H](O)C(=O)CCC[C@H](C)OC2=O [Compound 7, LL-Z164-1]
TAK1 inhibitory activity, result in words [1]: loss of activity

CC=C/C=C\C(=O)[C@@H](O)[C@@H](O)C/C=C/c1cc(OC)cc(OC)c1C(=O)OC (stereo in doubt) [Compound 10, Methyl 2-((1E,4S,5S,7Z,9Z)-4,5-dihydroxy-6-oxoundeca-1,7,9-trien-1-yl)-4,6-dimethoxybenzoate]
TAK1 inhibitory activity, result in words [1]: inability

COc1cc(O)c2c(c1)/C=C/C[C@@H]1OC(C)(C)O[C@@H]1C(=O)/C=C\C[C@H](C)OC2=O [Compound 16, (3aS,5Z,8S,15E,17aS)-11-Hydroxy-13-methoxy-2,2,8-trimethyl-7,8,17,17a-tetrahydro-4H-benzo[c][1,3]dioxolo[4,5-h][1]oxacyclotetradecine-4,10(3aH)-dione]
reduction of TAK1 inhibitory activity relative to 1 ([1]; compared with 1): more than 30 fold
